Measurements reported in patent publication US20100298141A1, “SUBSTITUTED PYRIDINE N-OXIDE HERBICIDES” (E. I. DU PONT DE NEMOURS AND COMPANY, priority 2007, published 2010).

Assays:
[1] = tested on: morningglory; experiment: Test A pre-/postemergence greenhouse test; assay type: in vivo, Ipomoea spp.; details: for Morningglory plant response rating: 0 to 100 scale
Procedure, shortened: (§1)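 Pre: directed soil spray on seeded loam/sand. Post: foliar spray, plants 2–10 cm, 1–2 leaf stage, applied concurrently. Vehicle: non-phytotoxic solvent + surfactant. Greenhouse ~10 d; visual injury rating vs untreated controls.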

[2] = tested on: soybean; experiment: Test C pre-/postemergence test; assay type: in vivo, Glycine max; details: for Plant response rating, Soybean: scale 0 to 100, 0 no effect, 100 complete control
Procedure, shortened: (§2)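 Compounds in a non-phytotoxic solvent with surfactant applied preemergence to seeded pots and, at the same time, postemergence to plants 2–18 cm tall (1- to 4-leaf stage). Paddy tests: pots flooded to 3 cm, compound applied into the water, depth held throughout.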

[3] = tested on: giant foxtail; experiment: Test A pre-/postemergence greenhouse test; assay type: in vivo, Setaria faberi; details: for Foxtail, Giant plant response rating: 0 to 100 scale
Procedure, shortened: as §1

[4] = tested on: catchweed bedstraw; experiment: Test C pre-/postemergence test; assay type: in vivo, Galium aparine
Procedure, shortened: as §2

[5] = tested on: crabgrass; experiment: Test A pre-/postemergence greenhouse test; assay type: in vivo, Digitaria sanguinalis; details: for Crabgrass, Large plant response rating: 0 to 100 scale
Procedure, shortened: as §1

[6] = tested on: yellow nutsedge; experiment: Test C pre-/postemergence test; assay type: in vivo, Cyperus esculentus; details: for Plant response rating, Nutsedge, Yellow: scale 0 to 100, 0 no effect, 100 complete control
Procedure, shortened: as §2

[7] = tested on: wheat; experiment: Test A pre-/postemergence greenhouse test; assay type: in vivo, Triticum aestivum; details: for Wheat plant response rating: 0 to 100 scale
Procedure, shortened: as §1

[8] = tested on: bermudagrass; experiment: Test C pre-/postemergence test; assay type: in vivo, Cynodon dactylon; details: for Plant response rating, Bermudagrass: scale 0 to 100, 0 no effect, 100 complete control
Procedure, shortened: as §2

[9] = tested on: wheat; experiment: Test C pre-/postemergence test; assay type: in vivo, Triticum aestivum; details: for Wheat plant response rating: preemergence, scale 0 (no effect) to 100 (complete control); for Plant response rating, Wheat: scale 0 to 100, 0 no effect, 100 complete control
Procedure, shortened: as §2

[10] = tested on: Italian ryegrass; experiment: Test C pre-/postemergence test; assay type: in vivo, Lolium multiflorum; details: for Plant response rating, Ryegrass, Italian: scale 0 to 100, 0 no effect, 100 complete control
Procedure, shortened: as §2

[11] = tested on: corn; experiment: Test A pre-/postemergence greenhouse test; assay type: in vivo, Zea mays; details: for Corn plant response rating: 0 to 100 scale
Procedure, shortened: as §1

[12] = tested on: barnyardgrass; experiment: Test C flooded paddy test; assay type: in vivo, Echinochloa crus-galli; details: Flood
Procedure, shortened: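 Test compounds are applied straight into paddy water held 3 cm above the soil surface, with that flood maintained for the whole test. After 13 to 15 days in the greenhouse, each species is scored visually relative to controls.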

[13] = tested on: Goosegrass; experiment: Test C pre-/postemergence test; assay type: in vivo, Eleusin indica; details: for Plant response rating, Goosegrass: scale 0 to 100, 0 no effect, 100 complete control
Procedure, shortened: as §2

[14] = tested on: morningglory; experiment: Test C pre-/postemergence test; assay type: in vivo, Ipomoea coccinea; details: for Plant response rating, Morningglory: scale 0 to 100, 0 no effect, 100 complete control
Procedure, shortened: as §2

[15] = tested on: pigweed; experiment: Test C pre-/postemergence test; assay type: in vivo, Amaranthus retroflexus; details: for Plant response rating, Pigweed: scale 0 to 100, 0 no effect, 100 complete control
Procedure, shortened: as §2

[16] = tested on: common (oilseed) sunflower; experiment: Test C pre-/postemergence test; assay type: in vivo, Helianthus annuus; details: for Sunflower plant response rating: preemergence, scale 0 (no effect) to 100 (complete control)
Procedure, shortened: as §2

[17] = Postemergence, 125 g ai/ha, 0 is no effect, 100 is complete control
[18] = Postemergence, 500 g ai/ha, 0 is no effect, 100 is complete control
[19] = Preemergence, 125 g ai/ha, 0 no effect, 100 complete control
[20] = Preemergence, 500 g ai/ha, 0 to 100 scale where 0 is no effect and 100 is complete control
[21] = 31 g ai/ha, Preemergence, scale 0 to 100
[22] = 62 g ai/ha, preemergence, scale 0 (no effect) to 100 (complete control)
[23] = preemergence, 125 g ai/ha, scale 0 (no effect) to 100 (complete control)

CC(c1c(C(F)(F)F)nn(C)c1OC(F)F)S(=O)(=O)c1cccc[n+]1[O-] (centres unmarked) [Compound 5]
Morningglory plant response rating [1, 17]: 60 | Morningglory plant response rating [1, 18]: 90 | Morningglory plant response rating [1, 19]: 90 | Plant response rating, Morningglory [1, 20]: 100 | Soybean plant response rating [2, 21]: 0 | Plant response rating (0 to 100), Soybean ([2]; Postemergence, 31 g ai/ha): 0 | Plant response rating (0 to 100), Soybean ([2]; Postemergence, 62 g ai/ha): 20 | Plant response rating, Soybean ([2]; Postemergence, 125 g ai/ha): 35 | Plant response rating, Soybean ([2]; Postemergence, 250 g ai/ha): 70 | Plant response rating (0 to 100), Soybean ([2]; Preemergence, 250 g ai/ha): 0 | Foxtail, Giant plant response rating [3, 17]: 90 | Foxtail, Giant plant response rating [3, 18]: 90 | Foxtail, Giant plant response rating [3, 19]: 90 | Plant response rating, Foxtail, Giant [3, 20]: 100 | Galium plant response rating [4, 21]: 85 | Galium plant response rating [4, 22]: 90 | Plant response rating (0 to 100), Galium ([4]; Preemergence, 250 g ai/ha): 100 | Galium plant response rating [4, 23]: 100 | Crabgrass, Large plant response rating [5, 17]: 80 | Crabgrass, Large plant response rating [5, 18]: 90 | Crabgrass, Large plant response rating [5, 19]: 80 | Plant response rating, Crabgrass, Large [5, 20]: 100 | Nutsedge, Yellow plant response rating [6, 21]: 80 | Nutsedge, Yellow plant response rating [6, 22]: 95 | Plant response rating (0 to 100), Nutsedge, Yellow ([6]; Postemergence, 31 g ai/ha): 0 | Plant response rating, Nutsedge, Yellow ([6]; Postemergence, 62 g ai/ha): 0 | Plant response rating, Nutsedge, Yellow ([6]; Postemergence, 125 g ai/ha): 0 | Plant response rating, Nutsedge, Yellow ([6]; Postemergence, 250 g ai/ha): 10 | Plant response rating (0 to 100), Nutsedge, Yellow ([6]; Preemergence, 250 g ai/ha): 100 | Nutsedge, Yellow plant response rating [6, 23]: 100 | Wheat plant response rating [7, 17]: 60 | Wheat plant response rating [7, 18]: 70 | Wheat plant response rating [7, 19]: 70 | Plant response rating, Wheat [7, 20]: 90 | Bermudagrass plant response rating [8, 21]: 100 | Bermudagrass plant response rating [8, 22]: 100 | Plant response rating (0 to 100), Bermudagrass ([8]; Postemergence, 31 g ai/ha): 5 | Plant response rating, Bermudagrass ([8]; Postemergence, 62 g ai/ha): 40 | Plant response rating, Bermudagrass ([8]; Postemergence, 125 g ai/ha): 60 | Plant response rating, Bermudagrass ([8]; Postemergence, 250 g ai/ha): 60 | Plant response rating (0 to 100), Bermudagrass ([8]; Preemergence, 250 g ai/ha): 100 | Bermudagrass plant response rating [8, 23]: 100 | Wheat plant response rating ([9]; 62 g ai/ha): 20 | Plant response rating (0 to 100), Wheat ([9]; Postemergence, 31 g ai/ha): 0 | Plant response rating (0 to 100), Wheat ([9]; Postemergence, 62 g ai/ha): 0 | Plant response rating, Wheat ([9]; Postemergence, 125 g ai/ha): 30 | Plant response rating, Wheat ([9]; Postemergence, 250 g ai/ha): 30 | Plant response rating (0 to 100), Wheat ([9]; Preemergence, 250 g ai/ha): 98 | Wheat plant response rating ([9]; 125 g ai/ha): 70 | Ryegrass, Italian plant response rating [10, 21]: 80 | Ryegrass, Italian plant response rating [10, 22]: 100 | Plant response rating (0 to 100), Ryegrass, Italian ([10]; Postemergence, 31 g ai/ha): 0 | Plant response rating (0 to 100), Ryegrass, Italian ([10]; Postemergence, 62 g ai/ha): 0 | Plant response rating, Ryegrass, Italian ([10]; Postemergence, 125 g ai/ha): 40 | Plant response rating, Ryegrass, Italian ([10]; Postemergence, 250 g ai/ha): 50 | Plant response rating (0 to 100), Ryegrass, Italian ([10]; Preemergence, 250 g ai/ha): 100 | Ryegrass, Italian plant response rating [10, 23]: 100 | Corn plant response rating [11, 17]: 30 | Corn plant response rating [11, 18]: 70 | Corn plant response rating [11, 19]: 20 | Plant response rating, Corn [11, 20]: 80 | Plant response rating, Barnyardgrass ([12]; 31 g ai/ha, scale 0 to 100 (0 no effect, 100 complete control)): 70 | Plant response rating, Barnyardgrass ([12]; 62 g ai/ha, scale 0 to 100, 0 no effect, 100 complete control, 13 to 15 days): 80 | Plant response rating, Barnyardgrass ([12]; 125 g ai/ha, scale 0 to 100, 0 no effect, 100 complete control, 13 to 15 days): 85 | Plant response rating, Barnyardgrass ([12]; 250 g ai/ha, scale 0 to 100 (0 no effect, 100 complete control)): 85 | Goosegrass plant response rating [13, 21]: 100 | Goosegrass plant response rating [13, 22]: 100 | Plant response rating (0 to 100), Goosegrass ([13]; Postemergence, 31 g ai/ha): 0 | Plant response rating, Goosegrass ([13]; Postemergence, 62 g ai/ha): 55 | Plant response rating, Goosegrass ([13]; Postemergence, 125 g ai/ha): 60 | Plant response rating, Goosegrass ([13]; Postemergence, 250 g ai/ha): 70 | Plant response rating (0 to 100), Goosegrass ([13]; Preemergence, 250 g ai/ha): 100 | Goosegrass plant response rating [13, 23]: 100 | Morningglory plant response rating [14, 21]: 85 | Morningglory plant response rating [14, 22]: 100 | Plant response rating (0 to 100), Morningglory ([14]; Postemergence, 31 g ai/ha): 5 | Plant response rating, Morningglory ([14]; Postemergence, 62 g ai/ha): 5 | Plant response rating, Morningglory ([14]; Postemergence, 125 g ai/ha): 10 | Plant response rating, Morningglory ([14]; Postemergence, 250 g ai/ha): 10 | Plant response rating (0 to 100), Morningglory ([14]; Preemergence, 250 g ai/ha): 100 | Morningglory plant response rating [14, 23]: 100 | Pigweed plant response rating [15, 21]: 100 | Pigweed plant response rating [15, 22]: 100 | Plant response rating (0 to 100), Pigweed ([15]; Postemergence, 31 g ai/ha): 0 | Plant response rating (0 to 100), Pigweed ([15]; Postemergence, 62 g ai/ha): 0 | Plant response rating, Pigweed ([15]; Postemergence, 125 g ai/ha): 0 | Plant response rating, Pigweed ([15]; Postemergence, 250 g ai/ha): 0 | Plant response rating (0 to 100), Pigweed ([15]; Preemergence, 250 g ai/ha): 100 | Pigweed plant response rating [15, 23]: 100 | Sunflower plant response rating ([16]; 62 g ai/ha): 55 | Plant response rating (0 to 100), Sunflower ([16]; Preemergence, 250 g ai/ha): 85 | Sunflower plant response rating ([16]; 125 g ai/ha): 70
